Results: patent US7196077B2, “Tachykinin antagonists” (Glaxo Group Limited, priority 2001, dated 2007)
Counter-ions that a name gives are not always drawn.

Biological target: T1, recombinant human NK1 receptors (Homo sapiens, UniProt P25103)
T1 construct: expressed in transfected cells; host or cells: Chinese Hamster Ovary (CHO) cells, membrane preparation
Assay: NK1-receptor binding affinity, displacement of [3H]-substance P
Conditions: negative logarithm of Ki; displacement of [3H]-substance P from recombinant human NK1 receptors in CHO cell membranes; average of at least two determinations
Experimental: NK1-receptor binding affinity has been determined in vitro by the compounds' ability to displace [3H]-substance P (SP) from recombinant human NK1 receptors expressed in Chinese Hamster Ovary (CHO) cell membranes.
CHO cell membranes were prepared by using a modification of the method described by Dam T and Quirion R (Peptides, 7: 855–864, 1986). Thus ligand binding was performed in 0.4 mL of 50 mM HEPES, pH 7.4, containing 3 mM MnCl2, 0.02% BSA, 0.5 nM [^3H]-Substance P (30÷56 Ci/mmol, Amersham), a final membrane concentration of 25 μg of protein/ml, and the test compounds. The incubation proceeded at room temperature for 40 min. Non-specific binding was determined using excess of Substance P (1 μM) and represents about 6% of the total binding.
The affinity of the compound of the invention for NK1 receptor was determined using the NK1-receptor binding affinity method measuring in vitro by the compounds' ability to displace [3H]-substance P (SP) from recombinant human NK1 receptors expressed in Chinese Hamster Ovary (CHO) cell membranes. The affinity values are expressed as negative logarithm of the inhibition constant (Ki) of displacer ligands (pKi).

T1 sequence (P25103 whole entry): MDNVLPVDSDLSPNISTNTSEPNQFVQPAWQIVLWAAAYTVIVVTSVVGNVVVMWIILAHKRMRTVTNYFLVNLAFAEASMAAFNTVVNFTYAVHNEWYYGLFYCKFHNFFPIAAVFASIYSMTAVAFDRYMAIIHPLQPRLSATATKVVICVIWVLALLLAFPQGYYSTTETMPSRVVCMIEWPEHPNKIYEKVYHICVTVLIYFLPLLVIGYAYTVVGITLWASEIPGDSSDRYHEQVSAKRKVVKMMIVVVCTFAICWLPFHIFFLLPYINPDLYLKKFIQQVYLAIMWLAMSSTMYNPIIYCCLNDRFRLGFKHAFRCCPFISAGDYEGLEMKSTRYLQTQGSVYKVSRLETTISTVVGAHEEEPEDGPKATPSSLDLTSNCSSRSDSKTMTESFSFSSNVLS

Structure (SMILES)	Ki
Cc1cc(F)ccc1[C@H]1CNCCCN1C(=O)N(C)Cc1cc(C(F)(F)F)cc(C(F)(F)F)c1 [Example 1, 2-(S)-(4-Fluoro-2-methyl-phenyl)-[1,4]-diazepane-1-carboxylic acid, (3,5-bis-trifluoromethyl-benzyl)-methylamide hydrochloride]	0.0347 nM
Cc1cc(F)ccc1[C@H]1CCNCCN1C(=O)N(C)Cc1cc(C(F)(F)F)cc(C(F)(F)F)c1 [Example 2, 7-(R)-(4-Fluoro-2-methyl-phenyl)-[1,4]-diazepane-1-carboxylic acid, (3,5-bis-trifluoromethyl-benzyl)-methylamide hydrochloride]	0.0724 nM
Cc1cc(F)ccc1[C@H]1CNCCCN1C(=O)N(C)[C@H](C)c1cc(C(F)(F)F)cc(C(F)(F)F)c1 [Example 3, 2-(S)-(4-Fluoro-2-methyl-phenyl)-[1,4]-diazepane-1-carboxylic acid, [1-(R)-(3,5-bis-trifluoromethyl-phenyl)-ethyl]-methylamide hydrochloride]	0.0245 nM
Cc1cc(F)ccc1[C@H]1CCNCCN1C(=O)N(C)[C@H](C)c1cc(C(F)(F)F)cc(C(F)(F)F)c1 [Example 4, 7-(R)-(4-Fluoro-2-methyl-phenyl)-[1,4]-diazepane-1-carboxylic acid, [1-(R)-(3,5-bis-trifluoromethyl-phenyl)-ethyl]-methylamide hydrochloride]	0.0195 nM
Cc1cc(F)ccc1[C@H]1CNCCCN1C(=O)N(C)Cc1cc(Cl)cc(Cl)c1 [Example 5, 2-(S)-(4-Fluoro-2-methyl-phenyl)-[1,4]-diazepane-1-carboxylic acid, (3,5-dichloro-benzyl)-methylamide hydrochloride]	0.0661 nM
Cc1cc(F)ccc1[C@H]1CCNCCN1C(=O)N(C)Cc1cc(Cl)cc(Cl)c1 [Example 6, 7-(R)-(4-Fluoro-2-methyl-phenyl)-[1,4]-diazepane-1-carboxylic acid, (3,5-dichloro-benzyl)-methylamide hydrochloride]	0.0977 nM
Cc1cc(F)ccc1[C@H]1CNCCCN1C(=O)N(C)[C@@H](C)c1cc(C(F)(F)F)cc(C(F)(F)F)c1 [Example 7, 2-(S)-(4-Fluoro-2-methyl-phenyl)-[1,4]-diazepane-1-carboxylic acid, [1-(S)-(3,5-bis-trifluoromethyl-phenyl)-ethyl]-methylamide hydrochloride]	0.0479 nM
Cc1cc(F)ccc1[C@H]1CCNCCN1C(=O)N(C)[C@@H](C)c1cc(C(F)(F)F)cc(C(F)(F)F)c1 [Example 8, 7-(R)-(4-Fluoro-2-methyl-phenyl)-[1,4]-diazepane-1-carboxylic acid, [1-(S)-(3,5-bis-trifluoromethyl-phenyl)-ethyl]-methylamide hydrochloride]	0.0457 nM
CN(Cc1cc(C(F)(F)F)cc(C(F)(F)F)c1)C(=O)N1CCCNC[C@@H]1c1ccc(F)cc1 [Example 12a, 2-(S)-(4-Fluoro-phenyl)-[1,4]-diazepane-1-carboxylic acid, (3,5bis-trifluoromethyl-benzyl)-methylamide hydrochloride]	0.501 nM
Cc1cc(F)ccc1[C@H]1CCN(C)CCN1C(=O)N(C)Cc1cc(Cl)cc(Cl)c1 [Example 13, 7-(R)-(4-Fluoro-2-methyl-phenyl)-4-methyl-[1,4]-diazepane-1-carboxylic acid, (3,5-dichloro-benzyl)-methylamide hydrochloride]	0.295 nM
Cc1cc(F)ccc1[C@H]1CCN(C)CCN1C(=O)N(C)Cc1cc(C(F)(F)F)cc(C(F)(F)F)c1 [Example 14, 7-(R)-(4-Fluoro-2-methyl-phenyl)-4-methyl-[1,4]-diazepane-1-carboxylic acid, (3,5-bis-trifluoromethyl-benzyl)-methylamide hydrochloride]	0.0562 nM
Cc1cc(F)ccc1[C@H]1CCN(C)CCN1C(=O)N(C)[C@H](C)c1cc(C(F)(F)F)cc(C(F)(F)F)c1 [Example 15, 7-(R)-(4-Fluoro-2-methyl-phenyl)-4-methyl-[1,4]-diazepane-1-carboxylic acid, [1-(R)-(3,5-bis-trifluoromethyl-phenyl)-ethyl]-methylamide hydrochloride.]	0.0309 nM
